Reference: US8067424B2, “Selective inhibitors for cyclin-dependent kinases” (Emory University, priority 2007, dated 2011)
Like-named read-outs stand apart in the source and are kept apart here.

What was measured:
AURORA C = AURORA C (Homo sapiens, UniProt Q9UQB9); assay: Kinase screen: Aurora C assay; format: biochemical; conditions: read-out: Mean Remaining Enzyme Activity (%)
Procedure: (§1) Generally, the same procedure was used for all assays. Since the total assay volume was 25.5 microliters, 0.5 microliters of inhibitors at 51× assay concentration were added to the plates before any other addition.
(§2) The basic procedure was to add 0.5 microliters inhibitor/control in DMSO to plate. Fifteen microliters of enzyme/substrate/buffer mix were added and incubated for 5 min. Ten microliters MgATP at the relevant concentration were added and incubated for 30 min. The assay was stopped by adding 5 microliters of 3% orthophosphoric acid. The assay was transferred to a p81 filter plate and read in a scintillation counter of 30 sec/well. Note that this assay procedure was not followed for MKK1, which instead involved a two-step assay, and PKC alpha, which required the addition of lipid vesicles.
Aurora C assay: Aurora C (5-20 mU diluted in 50 mM Tris pH 7.5, 0.1 mM EGTA, 0.1% b-mercaptoethanol, 1 mg/ml BSA) was assayed against a substrate peptide ([…]) (SEQ ID NO: 26) in a final volume of 25.5 μl containing 50 mM Tris pH 7.5, 0.05% b-mercaptoethanol, 300 μM substrate peptide, 10 mM magnesium acetate and 0.005 mM [33P-g-ATP] (50-1000 cpm/pmole) and incubated for 30 min at room temperature. Assays were stopped by addition of 5 μl of 0.5 M (3%) orthophosphoric acid and then harvested onto P81 Unifilter plates with a wash buffer of 50 mM orthophosphoric acid.

HIPK3 = HIPK3 (Homo sapiens, UniProt Q9H422); assay: Kinase screen: HIPK3 assay; format: biochemical; conditions: read-out: Mean Remaining Enzyme Activity (%)
HIPK3, sequence (Q9H422 whole entry, species assumed): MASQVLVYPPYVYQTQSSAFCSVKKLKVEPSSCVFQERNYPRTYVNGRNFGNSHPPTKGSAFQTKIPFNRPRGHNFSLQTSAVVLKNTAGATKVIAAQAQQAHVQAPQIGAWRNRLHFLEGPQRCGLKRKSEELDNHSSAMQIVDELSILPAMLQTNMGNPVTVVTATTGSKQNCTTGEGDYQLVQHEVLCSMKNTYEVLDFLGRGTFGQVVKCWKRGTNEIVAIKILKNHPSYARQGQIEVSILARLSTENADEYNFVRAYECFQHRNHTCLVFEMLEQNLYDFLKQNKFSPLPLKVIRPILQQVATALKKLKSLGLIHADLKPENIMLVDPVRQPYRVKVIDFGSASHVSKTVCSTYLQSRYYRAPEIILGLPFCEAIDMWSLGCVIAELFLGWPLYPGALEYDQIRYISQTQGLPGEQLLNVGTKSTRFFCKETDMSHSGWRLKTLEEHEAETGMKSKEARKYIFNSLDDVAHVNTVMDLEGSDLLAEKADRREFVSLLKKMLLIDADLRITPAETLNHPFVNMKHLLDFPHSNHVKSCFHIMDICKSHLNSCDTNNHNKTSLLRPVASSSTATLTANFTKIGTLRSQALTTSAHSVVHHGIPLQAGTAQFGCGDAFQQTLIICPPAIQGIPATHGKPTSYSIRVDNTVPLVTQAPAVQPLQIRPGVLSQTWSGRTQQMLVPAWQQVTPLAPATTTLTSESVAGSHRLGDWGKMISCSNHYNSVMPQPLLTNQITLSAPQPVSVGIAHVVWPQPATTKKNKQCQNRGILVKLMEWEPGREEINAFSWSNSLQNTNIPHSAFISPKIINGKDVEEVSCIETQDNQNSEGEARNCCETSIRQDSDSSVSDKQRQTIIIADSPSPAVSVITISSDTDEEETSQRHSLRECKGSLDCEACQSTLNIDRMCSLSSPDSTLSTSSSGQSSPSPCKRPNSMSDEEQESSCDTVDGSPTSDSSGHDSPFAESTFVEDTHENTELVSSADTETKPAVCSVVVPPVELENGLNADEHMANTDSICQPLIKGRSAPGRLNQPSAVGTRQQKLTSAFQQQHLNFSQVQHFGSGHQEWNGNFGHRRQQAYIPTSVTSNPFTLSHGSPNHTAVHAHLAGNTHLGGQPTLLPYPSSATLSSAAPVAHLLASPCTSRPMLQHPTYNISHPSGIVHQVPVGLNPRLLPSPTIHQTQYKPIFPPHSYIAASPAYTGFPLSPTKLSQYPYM
Procedure: as §1, §2
HIPK3 assay: 5-20 mU of HIPK3 (diluted in 50 mM Tris (pH 7.5), 0.1 mM EGTA, 1 mg/ml BSA, 0.1%, b-Mercaptoethanol) was assayed against MBP in a final volume of 25.5 μl containing 50 mM Tris (pH 7.5), 0.1 mM EGTA, 0.1%, b-Mercaptoethanol, 0.33 mg/ml MBP, 10 mM magnesium acetate and 0.02 mM [33P-g-ATP] (500-1000 cpm/pmole) and incubated for 30 mins at room temperature. Assays were stopped by addition of 5 μl of 0.5M (3%) orthophosphoric acid. Assays were harvested onto P81 Unifilter plates using a wash buffer of 50 mM orthophosphoric acid.

MALME-3M = conditions: for Mean Optical Densities / Percent Growth: MALME-3M
A549/ATCC = conditions: for Mean Optical Densities / Percent Growth: A549/ATCC
UACC-62 = assay: cells; conditions: Homo sapiens
ACHN = assay: cells; conditions: Homo sapiens
PC-3 = assay: cells; conditions: Homo sapiens
MDA-MB-231/ATCC = assay: cells; conditions: Homo sapiens
SN12C = assay: cells; conditions: Homo sapiens
SK-MEL-5 = assay: cells; conditions: Homo sapiens
HCT-116 [1] = system: HCT-116
HCT-116 [2] = assay: cells; conditions: Homo sapiens
[3] = OVCAR-3, log10 concentration −4.0
[4] = OVCAR-3, log10 concentration −5.0
[5] = OVCAR-3, log10 concentration −6.0
[6] = OVCAR-3, log10 concentration −7.0
[7] = OVCAR-3, log10 concentration −8.0
[8] = HCT-116, log10 concentration −4.0
[9] = HCT-116, log10 concentration −5.0
[10] = HCT-116, log10 concentration −6.0
[11] = HCT-116, log10 concentration −7.0
[12] = HCT-116, log10 concentration −8.0
[13] = OVCAR-8, log10 concentration −4.0
[14] = OVCAR-8, log10 concentration −5.0
[15] = OVCAR-8, log10 concentration −6.0
[16] = OVCAR-8, log10 concentration −7.0
[17] = OVCAR-8, log10 concentration −8.0
[18] = BT-549, log10 concentration −4.0
[19] = BT-549, log10 concentration −5.0
[20] = BT-549, log10 concentration −6.0
[21] = BT-549, log10 concentration −7.0
[22] = BT-549, log10 concentration −8.0

AURORA C, sequence (Q9UQB9 whole entry): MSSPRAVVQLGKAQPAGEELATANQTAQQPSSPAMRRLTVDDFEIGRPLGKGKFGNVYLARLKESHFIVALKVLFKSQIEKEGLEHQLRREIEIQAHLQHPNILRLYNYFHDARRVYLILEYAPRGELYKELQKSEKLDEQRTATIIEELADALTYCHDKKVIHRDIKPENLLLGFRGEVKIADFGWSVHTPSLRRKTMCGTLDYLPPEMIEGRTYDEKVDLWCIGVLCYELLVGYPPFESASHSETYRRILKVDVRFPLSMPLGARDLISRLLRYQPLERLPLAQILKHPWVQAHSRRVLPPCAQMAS

For CC(C)c1cnn2c(NCc3ccccc3)cc(NCCCCCCCN)nc12 [BS-181], the remaining activity at 10 µM (AURORA C) was 98% and the remaining activity at 10 µM (HIPK3) was 90%.
CC(C)c1cnn2c(NCc3ccccc3)cc(N[C@@H](CO)[C@H](O)CO)nc12 [ICEC0318, (3S)-3-(7-(Benzylamino)-3-isopropylpyrazolo[1,5-a]pyrimidin-5-ylamino)butane-1,2,4-triol] was tested, and the TGI (MALME-3M; MALME-3M (Melanoma)) was 1.09E−6, the “Mean Optical Densities” value (MALME-3M; log10 concentration −4.0) was 0.398 and the “Percent Growth” value (MALME-3M; log10 concentration −4.0) was −29%. For the same compound, the “Mean Optical Densities” value (MALME-3M; log10 concentration −5.0) was 0.458, the “Percent Growth” value (MALME-3M; log10 concentration −5.0) was −19% and the “Mean Optical Densities” value (MALME-3M; log10 concentration −6.0) was 0.565. For the same compound, the “Percent Growth” value (MALME-3M; log10 concentration −6.0) was 1%, the “Mean Optical Densities” value (MALME-3M; log10 concentration −7.0) was 1.008 and the “Percent Growth” value (MALME-3M; log10 concentration −7.0) was 126%. For the same compound, the “Mean Optical Densities” value (MALME-3M; log10 concentration −8.0) was 0.958, the “Percent Growth” value (MALME-3M; log10 concentration −8.0) was 112% and the TGI (A549/ATCC; A549/ATCC (Non-Small Cell Lung Cancer)) was greater than 1.00E−4. The “Mean Optical Densities” value (A549/ATCC; log10 concentration −4.0) was 0.346, the “Percent Growth” value (A549/ATCC; log10 concentration −4.0) was 4% and the “Mean Optical Densities” value (A549/ATCC; log10 concentration −5.0) was 0.417. The “Percent Growth” value (A549/ATCC; log10 concentration −5.0) was 10%, the “Mean Optical Densities” value (A549/ATCC; log10 concentration −6.0) was 0.422 and the “Percent Growth” value (A549/ATCC; log10 concentration −6.0) was 11%. For the same compound, the “Mean Optical Densities” value (A549/ATCC; log10 concentration −7.0) was 1.369, the “Percent Growth” value (A549/ATCC; log10 concentration −7.0) was 94% and the “Mean Optical Densities” value (A549/ATCC; log10 concentration −8.0) was 1.447. The “Percent Growth” value (A549/ATCC; log10 concentration −8.0) was 101%, the GI50 (UACC-62; UACC-62) was 155 nM and the CC50 (UACC-62; UACC-62, read-out: LC50) was 644 nM. For the same compound, the GI50 (ACHN) was 233 nM, the CC50 (ACHN; read-out: LC50) was greater than 100000 nM and the GI50 (PC-3; PC-3) was 314 nM. For the same compound, the CC50 (PC-3; PC-3, read-out: LC50) was greater than 100000 nM, the GI50 (MDA-MB-231/ATCC; MDA-MB-231) was 438 nM and the CC50 (MDA-MB-231/ATCC; MDA-MB-231, read-out: LC50) was greater than 100000 nM. The GI50 (SN12C) was 327 nM, the CC50 (SN12C; read-out: LC50) was greater than 100000 nM and the GI50 (OVCAR-3; Homo sapiens, OVCAR-3) was 335 nM. The CC50 (OVCAR-3; Homo sapiens, OVCAR-3, read-out: LC50) was greater than 100000 nM, the TGI (OVCAR-3; OVCAR-3 (Ovarian Cancer)) was greater than 1.00E−4 and the “Mean Optical Densities” value (OVCAR-3; [3]) was 0.313. The “Percent Growth” value (OVCAR-3; [3]) was 9%, the “Mean Optical Densities” value (OVCAR-3; [4]) was 0.317 and the “Percent Growth” value (OVCAR-3; [4]) was 10%. The “Mean Optical Densities” value (OVCAR-3; [5]) was 0.306, the “Percent Growth” value (OVCAR-3; [5]) was 8% and the “Mean Optical Densities” value (OVCAR-3; [6]) was 0.700. The “Percent Growth” value (OVCAR-3; [6]) was 97%, the “Mean Optical Densities” value (OVCAR-3; [7]) was 0.795 and the “Percent Growth” value (OVCAR-3; [7]) was 118%. It also gave a GI50 (SK-MEL-5; SK-MEL-5) of 192 nM, a CC50 (SK-MEL-5; SK-MEL-5, read-out: LC50) of 5980 nM and a TGI (HCT-116 [1]; HCT-116 (Colon Cancer)) greater than 1.00E−4. For the same compound, the “Mean Optical Densities” value (HCT-116 [1]; [8]) was 0.170, the “Percent Growth” value (HCT-116 [1]; [8]) was 1% and the “Mean Optical Densities” value (HCT-116 [1]; [9]) was 0.179. The “Percent Growth” value (HCT-116 [1]; [9]) was 2%, the “Mean Optical Densities” value (HCT-116 [1]; [10]) was 0.182 and the “Percent Growth” value (HCT-116 [1]; [10]) was 2%. For the same compound, the “Mean Optical Densities” value (HCT-116 [1]; [11]) was 0.749, the “Percent Growth” value (HCT-116 [1]; [11]) was 62% and the “Mean Optical Densities” value (HCT-116 [1]; [12]) was 1.058. For the same compound, the “Percent Growth” value (HCT-116 [1]; [12]) was 95%, the TGI (OVCAR-8; OVCAR-8 (Ovarian Cancer)) was greater than 1.00E−4 and the “Mean Optical Densities” value (OVCAR-8; [13]) was 0.723. For the same compound, the “Percent Growth” value (OVCAR-8; [13]) was 10%, the “Mean Optical Densities” value (OVCAR-8; [14]) was 0.810 and the “Percent Growth” value (OVCAR-8; [14]) was 16%. The “Mean Optical Densities” value (OVCAR-8; [15]) was 0.803, the “Percent Growth” value (OVCAR-8; [15]) was 15% and the “Mean Optical Densities” value (OVCAR-8; [16]) was 1.975. For the same compound, the “Percent Growth” value (OVCAR-8; [16]) was 89%, the “Mean Optical Densities” value (OVCAR-8; [17]) was 2.165 and the “Percent Growth” value (OVCAR-8; [17]) was 101%. It also gave a GI50 (HCT-116 [2]; HCT-116) of 161 nM, a CC50 (HCT-116 [2]; HCT-116, read-out: LC50) greater than 100000 nM and a TGI (BT-549; BT-549 (Breast Cancer)) of 8.82E−7. For the same compound, the “Mean Optical Densities” value (BT-549; [18]) was 0.803, the “Percent Growth” value (BT-549; [18]) was −10% and the “Mean Optical Densities” value (BT-549; [19]) was 0.805. The “Percent Growth” value (BT-549; [19]) was −9%, the “Mean Optical Densities” value (BT-549; [20]) was 0.843 and the “Percent Growth” value (BT-549; [20]) was −5%. The “Mean Optical Densities” value (BT-549; [21]) was 1.769, the “Percent Growth” value (BT-549; [21]) was 88% and the “Mean Optical Densities” value (BT-549; [22]) was 1.968. The “Percent Growth” value (BT-549; [22]) was 108%.
